What was measured:
[1] = test system: high-risk patients undergoing CABG surgery with cardiopulmonary bypass; test: Cognitive function after CABG surgery, Mini Mental State Exam (MMSE), MEND-CABG trial; type: in vivo, human; settings: for MMSE at POD 30, Mean / MMSE at POD 90, Mean: score 0-30
Procedure: The ability of P5P to protect against cognitive decline following CABG surgery was evaluated through the administration of a battery of validated psychometric tests pre-operatively, 4 days after surgery, 30 days after surgery, and 90 days after surgery.
A randomized, double-blind placebo-controlled, dose-ranging, parallel-arm multi-center study was undertaken, on high-risk patients undergoing CABG surgery with cardiopulmonary bypass.
Patients were identified as “high risk” if they had two or more of the following risk factors: • Age greater than 65 years; • Diabetes mellitus; • History of congestive heart failure; • History of a previous non-disabling stroke, transient ischemic attack, or carotid endarterectomy; • Prior CABG surgery; • Urgent CABG intervention defined as the need to stay in the hospital (although the patient may be operated on within a normal scheduling routine); • History of myocardial infarction that occurred more than 48 hours but less than 6 weeks prior to CABG surgery; and • Presence of at least one asymptomatic carotid artery stenosis (>50%) either in one or two carotid arteries.
Approximately 900 high risk pre-CABG patients in 42 different treatment centers in North America were screened and randomized to three groups of approximately 300 patients each, prior to their bypass surgery, as follows. Patients were either placed in a control group (placebo), treated with 250 mg/day of P5P, (250 mg/day), or treated with 750 mg/day of P5P (750 mg/day). The first dose of study medication was administered at 3-10 hours prior to CABG surgery. In the event of surgery delay or rescheduling, a second pre-operative dose of P5P was administered so that all patients received study medication 3-10 hours before surgery. Treatment continued for 30 days after surgery (post operative day (POD) 30). Patients received follow-up evaluations up to and including postoperative day (POD) 4, on POD 30 and on POD 90.
Patients were measured to assess change in cognitive function by the effects of P5P on neurological events following CABG surgery by methods of Mini Mental State Exam and psychometric testing (grooved pegboard).
MMSE is a well validated test to screen cognitive function (Folstein, J Psychiatr Res. 1975 Nov.;12(3):189-98). It measures orientation, registration (immediate memory), short-term (but not long-term) memory, and language functioning. The test is scored from 0-30, with scores of 25-30 considered normal, scores of 18-24 indicative of mild cognitive impairment, and scores under 17 indicative of severe impairment (Crum, JAMA. 1993 May 12;269(18):2386-91). This test is appropriate to indicate the presence of cognitive impairment.
The MMSE was administered to all 900 patients at screening, post-operative day (POD) 30, and POD 90. The MMSE score at POD 90 was analyzed using an analysis of covariance (ANOCO) model, adjusting for the MMSE score at screening. […] The results with P5P treatment (either 250 or 750 mg/day) were tabulated in Table 7, according to screening MMSE score.

[2] = in water, alcohol, and ether; cited from earlier work

Question: Which results are given for `Cc1ncc(COP(=O)(O)O)c(C=O)c1O` [P5P, 3-hydroxy-2-methyl-5-[(phosphonooxy)methyl]-4-pyridine-carboxaldehyde]?
Answer: MMSE at POD 90, Adjusted Mean ([1]; 250 mg/day, MMSE screening = 25, ANOCO p 0.0067 vs placebo): 27.74; MMSE at POD 90, Adjusted Mean ([1]; 250 mg/day, MMSE screening = 26, ANOCO p 0.0074 vs placebo): 28.08; MMSE at POD 90, Adjusted Mean ([1]; 250 mg/day, MMSE screening = 27, ANOCO p 0.0116 vs placebo): 28.42; MMSE at POD 90, Adjusted Mean ([1]; 250 mg/day, MMSE screening = 28, ANOCO p 0.0579 vs placebo): 28.76; MMSE at POD 90, Adjusted Mean ([1]; 250 mg/day, MMSE screening = 29, ANOCO p 0.7654 vs placebo): 29.10; MMSE at POD 90, Adjusted Mean ([1]; 250 mg/day, MMSE screening = 30, ANOCO p 0.2726 vs placebo): 29.44; MMSE at POD 30, Mean ([1]; 250 mg/day): 28.57; MMSE at POD 90, Mean ([1]; 250 mg/day): 28.97; MMSE at POD 90, Adjusted Mean ([1]; 750 mg/day, MMSE screening = 25, ANOCO p 0.0664 vs placebo): 27.41; MMSE at POD 90, Adjusted Mean ([1]; 750 mg/day, MMSE screening = 26, ANOCO p 0.0701 vs placebo): 27.83; MMSE at POD 90, Adjusted Mean ([1]; 750 mg/day, MMSE screening = 27, ANOCO p 0.0875 vs placebo): 28.25; MMSE at POD 90, Adjusted Mean ([1]; 750 mg/day, MMSE screening = 28, ANOCO p 0.1926 vs placebo): 28.67; MMSE at POD 90, Adjusted Mean ([1]; 750 mg/day, MMSE screening = 29, ANOCO p 0.8350 vs placebo): 29.08; MMSE at POD 90, Adjusted Mean ([1]; 750 mg/day, MMSE screening = 30, ANOCO p 0.4317 vs placebo): 29.50; MMSE at POD 30, Mean ([1]; 750 mg/day): 28.79; MMSE at POD 90, Mean ([1]; 750 mg/day): 28.99; protection against the decline in overall neurocognitive function associated with CABG surgery ([1]; MEND-CABG trial, 250 or 750 mg/day): provided protection; Improvements in MMSE score, 250 mg/day dose group compared with 750 mg/day dose group ([1]; in particular in patients with lower MMSE scores at screening): more significant; solubility [2]: essentially insoluble

From US20070149485A1, “SELECTED DOSAGE FOR THE TREATMENT OF CARDIOVASCULAR AND RELATED PATHOLOGIES” (Medicure International, Inc., priority 2005, published 2007)
